Reference: patent US20250195542A1, “METABOLIC DISEASE THERAPEUTIC AGENT OR PREVENTIVE AGENT” (Peking University, priority 2022, published 2025)

Tests used:
RDH10 = biological target: T1, RDH10 (Mus musculus, UniProt Q8VCH7); test: Protein fishing (pull-down) with molecular probe and proteomics analysis; type: binding, C57BL/6J mice
T1 construct: Take approximately 50 mg of liver tissue from C57BL/6J mice and add 1 mL of RIPA lysis buffer; from tissue; host or cells: mouse liver (C57BL/6J) lysate
T1 sequence (Q8VCH7 1-341): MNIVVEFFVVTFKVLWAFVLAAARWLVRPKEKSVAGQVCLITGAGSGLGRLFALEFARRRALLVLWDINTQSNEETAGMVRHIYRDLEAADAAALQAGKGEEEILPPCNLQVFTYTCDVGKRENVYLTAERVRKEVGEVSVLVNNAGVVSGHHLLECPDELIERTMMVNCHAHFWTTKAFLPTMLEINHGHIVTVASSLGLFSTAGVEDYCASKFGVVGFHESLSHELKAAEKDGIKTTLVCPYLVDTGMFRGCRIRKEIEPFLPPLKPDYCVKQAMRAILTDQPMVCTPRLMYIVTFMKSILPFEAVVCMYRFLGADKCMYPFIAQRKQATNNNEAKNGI
Experimental: • 1. Preparation of Liver Protein: Take approximately 50 mg of liver tissue from C57BL/6J mice and add 1 mL of RIPA lysis buffer. Lyse the proteins on ice, then centrifuge at 12,000 rpm for 30 minutes at 4° C. Collect the supernatant, measure the protein concentration using BCA method, and dilute to 1 mg/mL with PBS. • 2. Sample Preparation: Prepare new 1.5 mL EP tubes and divide them into control group, drug group, and competitive inhibition group. Add 100 μL of PBS solution containing 40 μM Biotin to the control group, 100 μL of PBS solution containing 40 μM ACS-biotin (prepared in Example 1) to the drug group, and 100 μL of PBS solution containing 40 μM ACS-biotin and 400 μM ACS to the competitive inhibition group. Then, add 100 μL of liver protein lysate (1 mg/mL) to each tube and incubate on a shaking incubator at 4° C. for 2 hours. • 3. Washing Streptavidin Beads: Add 100 μL of streptavidin beads to new 1.5 mL EP tubes and centrifuge at 2,700 rpm for 1 minute. Discard the supernatant and wash the beads with 100 μL of PBS three times. • 4. Binding and Washing: Add the solutions from step 2 to the washed streptavidin beads. Incubate on a shaking incubator at 4° C. for 2 hours, then centrifuge at 2,700 rpm for 1 minute. Discard the supernatant and wash the beads with 100 μL of PBS three times. • 5. Protein Elution: Add 50 μL of PBS to the beads, mix well, and then add 5×SDS-PAGE sample buffer. Boil for 5 minutes and centrifuge at 13,000 rpm for 5 minutes. Store the supernatant at −20° C. for SDS-PAGE gel electrophoresis. • 6. Protein Detection: Stain with Coomassie Brilliant Blue and cut the gel for proteomics analysis.

[1] = tested on: non-alcoholic steatohepatitis (NASH) in MCD mice; test: Serum ALT in MCD mice (NASH model), Example 6; type: in vivo, C57BL/6J mice; conditions: oral 4 weeks, Antcin K 20 mg/kg, Antcin C 20 and 40 mg/kg, AK-GLU 26.6 mg/kg, better than obeticholic acid 10 mg/kg and DEA 20 mg/kg, FIG. 8
Experimental: (§1) The MCD mouse model and drug administration method were the same as in Example 4. After the final treatment, the mice were sacrificed, and the liver tissue samples were fixed overnight in 4% paraformaldehyde, embedded in paraffin, and sectioned. The sections were stained with hematoxylin and eosin (H&E) according to the following procedure: immerse the sections in the following solutions sequentially: xylene (I) for 15 minutes, xylene (II) for 15 minutes, 50% xylene-absolute ethanol for 2 minutes, absolute ethanol (I) for 5 minutes, absolute ethanol (II) for 5 minutes, 80% ethanol for 5 minutes, distilled water for 5 minutes, hematoxylin staining solution for 5 minutes, rinse with running water for 5 minutes, 1% hydrochloric acid ethanol for 30 seconds, rinse with water for 30 seconds, wash with distilled water for 5 seconds, 0.5% eosin staining solution for 2 minutes, rinse with distilled water for 30 seconds, 80% ethanol for 30 seconds, 95% ethanol (I) for 1 minute, 95% ethanol (II) for 1 minute, absolute ethanol (I) for 3 minutes, absolute ethanol (II) for 3 minutes, xylene (I) for 3 minutes, xylene (II) for 3 minutes, and mount with neutral resin.
(§2) The treated groups were compared with untreated MCD mice (“MCD”) and normal mice (“Nor”). The drug administration doses were as follows: positive control obeticholic acid (OCA): 10 mg/kg; Antcin K (AK): 20 mg/kg; low-dose Antcin C (AC-L): 20 mg/kg; high-dose Antcin C (AC-H): 40 mg/kg; DEA: 20 mg/kg; AK-GLU: 26.6 mg/kg.
After the final treatment, the mice were fasted overnight, sacrificed, and blood was collected from the eye vein. The whole blood was allowed to stand for 2 hours, centrifuged at 6000 rpm for 10 minutes, and the serum was obtained.

[2] = tested on: non-alcoholic steatohepatitis (NASH) in MCD mice; test: Pathological (H&E) staining of liver sections from MCD mice, Example 6; type: in vivo, C57BL/6J mice; conditions: oral 4 weeks, Antcin K 20 mg/kg, Antcin C 20 and 40 mg/kg, AK-GLU 26.6 mg/kg, better than obeticholic acid and DEA, FIG. 9
Experimental: as §1, §2

FGF21 [3] = test: FGF21 gene expression in the liver of MCD mice (qPCR); type: in vivo, C57BL/6J mice; conditions: oral 4 weeks, Antcin C 20 and 40 mg/kg, AK-GLU 26.6 mg/kg, compared to DEA 20 mg/kg, FIG. 6
Experimental: Four-week-old male C57BL/6J mice were purchased from the Experimental Animal Center, Peking University Health Science Center. The mice were randomly divided into groups, with 10 mice per group. Methionine choline-deficient diet (MCD) was used to induce non-alcoholic steatohepatitis (NASH), forming the MCD model mice. The model mice were treated with an oral administration of drugs for 4 weeks. After the final treatment, the mice were fasted overnight, and then sacrificed. Serum and liver tissues were stored at −80° C., which could be compared with untreated MCD mice (“MCD”) and normal mice (“Nor” or “Normal”). The dosing amounts for each group were as follows: low-dose Antcin C (“AC-L”): 20 mg/kg; high-dose Antcin C (“AC-H”): 40 mg/kg; DEA: 20 mg/kg; AK-GLU: 26.6 mg/kg.
Total RNA Extraction: Liver tissue samples from the mice (10-20 mg) were cut into pieces and added to 1 ml of Tranzol. The mixture was placed on ice and homogenized, then transferred to an RNase-free and DNase-free EP tube. To each tube, 0.2 ml of chloroform was added, and the mixture was vigorously shaken for 15 seconds. After incubation at low temperature for 3 minutes, the mixture was centrifuged at 12000 rpm for 15 minutes at 4° C. The aqueous upper phase was transferred to a new EP tube, and an equal volume of isopropanol was added. […] RNA concentration was measured using a spectrophotometer with an A260/280 ratio. […]

FGF21 [4] = test: Serum FGF21 protein in MCD mice (ELISA); type: in vivo, C57BL/6J mice; conditions: oral 4 weeks, Antcin K 20 mg/kg, Antcin C 20 and 40 mg/kg, AK-GLU 26.6 mg/kg, compared to DEA, FIG. 10
Experimental: The modeling and treatment of MCD mice were conducted as described in Example 4. The treated groups were compared with untreated MCD mice (“MCD”) and normal mice (“Nor”). The dosages for each treatment group were as follows: positive control obeticholic acid (“OCA”): 10 mg/kg; Antcin K (“AK”): 20 mg/kg; low-dose Antcin C (“AC-L”): 20 mg/kg; high-dose Antcin C (“AC-H”): 40 mg/kg; DEA: 20 mg/kg; AK-GLU: 26.6 mg/kg.
The serum sampling method from mice was the same as in Example 6. The FGF21 levels were tested using an ELISA kit (Beyotime), with the following procedure: The microplate was equilibrated at room temperature for 20 minutes. Then, 50 μL of serum samples or different concentrations of standards were added to each well. Next, 100 μL of HRP-conjugated detection antibody was added, and the plate was covered with a sealing film and incubated at 37° C. for 60 minutes. The liquid was discarded, and the plate was dried with absorbent paper. Each well was then washed with 350 μL of washing buffer, left for 1 minute, and the liquid was discarded and dried with absorbent paper. This washing step was repeated 5 times. Then, 50 μL of Substrate A and 50 μL of Substrate B were added to each well and incubated at 37° C. in the dark for 15 minutes. After that, 50 μL of stop solution was added to each well, and the absorbance at 450 nm was measured within 15 minutes. A standard curve was plotted with the absorbance of the standards on the vertical axis and the standard concentrations on the horizontal axis. The serum sample absorbance values were used to determine the FGF21 protein concentrations based on this standard curve.

FGF21 [5] = test: FGF21 protein expression in the liver of MCD mice (Western blot); type: in vivo, C57BL/6J mice; conditions: oral 4 weeks, Antcin K 20 mg/kg, Antcin C 20 and 40 mg/kg, compared to DEA 20 mg/kg, FIG. 7
Experimental: The modeling and procedures for MCD mice are as described in Example 4. Comparisons were made between the treated groups and untreated MCD mice (“MCD”) and normal mice (“Normal”). The dosing for each treatment group was as follows: positive drug obeticholic acid (“OCA”): 10 mg/kg; Antcin K (“AK”): 20 mg/kg; low-dose Antcin C (“AC-L”): 20 mg/kg; high-dose Antcin C (“AC-H”): 40 mg/kg; DEA: 20 mg/kg.
Liver tissue (15-20 mg) was homogenized in RIPA lysis buffer on ice, and then centrifuged at 13,000 rpm for 30 minutes at 4° C. The middle layer liquid was transferred to a new centrifuge tube and the protein concentration was measured using BCA method. For each sample, 20 μg of protein was separated by SDS-PAGE and then transferred to a PDVF membrane using Bio-Rad's standard wet transfer system at 200 mA for 60 minutes. Subsequently, the membrane was cut according to protein molecular weight and blocked with 0.5% BSA at room temperature for 60 minutes. The primary antibody was incubated at 4° C. for 14 hours, followed by washing with TBST at room temperature 3 times for 5 minutes each. The secondary antibody was incubated at room temperature for 1 hour, followed by washing with TBST at room temperature 3 times for 10 minutes each. ECL reagent was used for detection.

[6] = tested on: non-alcoholic steatohepatitis; conditions: reported; cited from earlier work

For “25S-Antcin C—CO—NH-PEG2-biotin [ACS-biotin]”, the “log2 (ACS-biotin/ACS-biotin+ACS) for RDH10 protein” value (RDH10; 40 μM ACS-biotin vs 40 μM ACS-biotin + 400 μM ACS, FIG. 14C) was greater than 0 and the “log2 (ACS-biotin/Biotin) for RDH10” value (RDH10; 40 μM ACS-biotin vs 40 μM Biotin, mouse liver protein lysate, FIG. 14B) was greater than 6.

With `C=C(CC[C@@H](C)[C@H]1CC[C@H]2C3=C(C(=O)C[C@]12C)[C@@]1(C)CC[C@@H](O)[C@](C)(O)[C@@H]1C[C@@H]3O[C@@H]1OC(CO)[C@@H](O)[C@H](O)C1O)C(C)C(=O)O` (stereo partly shown) [AK-GLU, Antcin K-7-O-glucoside] the “serum ALT levels” value [1] was “significantly reduced”, the “steatosis and ballooning in the liver” value [2] was “significantly reduced” and the “gene expression levels of FGF21 in vivo” value (FGF21 [3]) was “significantly activated”. The “serum FGF21 protein levels” value (FGF21 [4]) was “significantly upregulated”.

In the case of `C=C(CC[C@@H](C)[C@H]1CC[C@H]2C3=C(C(=O)C[C@]12C)[C@@]1(C)CCC(=O)[C@@H](C)[C@@H]1C[C@@H]3O)C(C)C(=O)O` (stereo partly shown) [Antcin C], the “serum ALT levels” value [1] is reported as “significantly reduced”, the “steatosis and ballooning in the liver” value [2] is reported as “significantly reduced” and the “gene expression levels of FGF21 in vivo” value (FGF21 [3]) is reported as “significantly activated”. The “FGF21 protein expression levels in liver” value (FGF21 [5]) was “significantly upregulated” and the “serum FGF21 protein levels” value (FGF21 [4]) was “significantly upregulated”.

In the case of `C=C(CC[C@@H](C)[C@H]1CC[C@H]2C3=C(C(=O)C[C@]12C)[C@@]1(C)CC[C@@H](O)[C@](C)(O)[C@@H]1C[C@@H]3O)C(C)C(=O)O` (stereo partly shown) [Antcin K], the “serum ALT levels” value [1] is reported as “significantly reduced”, the “steatosis and ballooning in the liver” value [2] is reported as “significantly reduced” and the “FGF21 protein expression levels in liver” value (FGF21 [5]) is reported as “significantly upregulated”. The “serum FGF21 protein levels” value (FGF21 [4]) was “significantly upregulated”.

In the case of `C=C(CC[C@@H](C(=O)O)[C@H]1CC[C@@]2(C)C3=CC[C@H]4C(C)(C)[C@@H](O)CC[C@]4(C)C3=CC[C@]12C)C(C)C` [DEA], the “effect in preventing and treating non-alcoholic steatohepatitis” value [6] is given as “relatively weak”.
